The values below come from BindingDB's records for patent US11160797 (NOVARTIS AG, 2021).

The target in the assay is T1, Activin receptor type-1 [172-499,R206H] (Homo sapiens, UniProt Q04771, R206H).
T1 construct: 172-499
Description: In Vitro Enzyme Inhibition Using a Biochemical Peptide Phosphorylation Assay- Caliper Assay.

T1 sequence (Q04771 172-499 R206H): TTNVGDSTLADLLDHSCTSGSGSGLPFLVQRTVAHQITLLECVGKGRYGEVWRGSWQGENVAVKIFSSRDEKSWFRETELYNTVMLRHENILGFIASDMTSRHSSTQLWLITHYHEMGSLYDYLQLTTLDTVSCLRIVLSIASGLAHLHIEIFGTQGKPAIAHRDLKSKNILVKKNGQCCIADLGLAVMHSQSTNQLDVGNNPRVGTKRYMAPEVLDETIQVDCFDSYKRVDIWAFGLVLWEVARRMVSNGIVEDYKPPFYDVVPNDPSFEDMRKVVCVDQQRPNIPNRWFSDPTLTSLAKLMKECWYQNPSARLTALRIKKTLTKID

One may read the IC50 as the midpoint of a concentration-inhibition curve. In turn, `CC(C)CN1c2ccc(-c3cncc(-c4ccc(=O)n(C(C)C)c4)c3)cc2CS1(=O)=O` [US11160797, Example 50] displayed an IC50 of 140 nM.
